Counter-ions that a name gives are not always drawn. Marks after values point to notes of the source that are not given here. Each block holds one molecule with its values, some of them ahead of it.
Columns and labels:
[1] = solubility of belumosudil mesylate in solvents; assay type: physicochemical
ROCK2 = ROCK2 (Homo sapiens, UniProt O75116); assay: ROCK2 inhibition; assay type: biochemical
[2] = phase I two-part drug-drug interaction study, plasma pharmacokinetics (Example 1); assay type: in vivo, human
From the text: The secondary objective was to provide additional information on the safety and tolerability of this dose regimen in healthy males.
This was a single center, non-randomized, DDI study in 35 (Part 1) and 38 (Part 2) healthy males. The key inclusion criterion was males aged 18 to 55 years (inclusive). […] In Part 2, co-administration with omeprazole was studied. The study design is illustrated in FIG. 1.
At least a 2-to 8-day washout occurred between each period to account for a minimum of 5 half-lives of the active moieties dosed in the preceding period.
Blood samples were collected into 6 mL K,EDTA tubes and were processed within 30 minutes of collection. The resultant plasma was then frozen within 90 minutes of collection and stored at […] until shipment to the bioanalytical laboratory.
For each comparison, PK parameters were natural log transformed and analyzed using mixed effect modeling with treatment included as a fixed effect and subject as a random effect. Adjusted geometric mean ratios (GMRs) and corresponding 90% CIs were calculated.

[3] = human, in vivo
patients with cGVHD = conditions: cited from earlier work
[4] = 200 mg belumosudil BID + omeprazole
[5] = 200 mg belumosudil BID + omeprazole, first dose
[6] = 200 mg belumosudil BID + omeprazole, second dose
[7] = 200 mg belumosudil BID alone, first dose
[8] = 200 mg belumosudil BID alone, second dose
[9] = 200 mg belumosudil single dose + rifampicin
[10] = 200 mg belumosudil single dose alone
[11] = coadministration of itraconazole
[12] = coadministration of rabeprazole
[13] = 200 mg belumosudil single dose + itraconazole
[14] = 200 mg belumosudil single dose + rabeprazole

Chain of ROCK2 (O75116 whole entry): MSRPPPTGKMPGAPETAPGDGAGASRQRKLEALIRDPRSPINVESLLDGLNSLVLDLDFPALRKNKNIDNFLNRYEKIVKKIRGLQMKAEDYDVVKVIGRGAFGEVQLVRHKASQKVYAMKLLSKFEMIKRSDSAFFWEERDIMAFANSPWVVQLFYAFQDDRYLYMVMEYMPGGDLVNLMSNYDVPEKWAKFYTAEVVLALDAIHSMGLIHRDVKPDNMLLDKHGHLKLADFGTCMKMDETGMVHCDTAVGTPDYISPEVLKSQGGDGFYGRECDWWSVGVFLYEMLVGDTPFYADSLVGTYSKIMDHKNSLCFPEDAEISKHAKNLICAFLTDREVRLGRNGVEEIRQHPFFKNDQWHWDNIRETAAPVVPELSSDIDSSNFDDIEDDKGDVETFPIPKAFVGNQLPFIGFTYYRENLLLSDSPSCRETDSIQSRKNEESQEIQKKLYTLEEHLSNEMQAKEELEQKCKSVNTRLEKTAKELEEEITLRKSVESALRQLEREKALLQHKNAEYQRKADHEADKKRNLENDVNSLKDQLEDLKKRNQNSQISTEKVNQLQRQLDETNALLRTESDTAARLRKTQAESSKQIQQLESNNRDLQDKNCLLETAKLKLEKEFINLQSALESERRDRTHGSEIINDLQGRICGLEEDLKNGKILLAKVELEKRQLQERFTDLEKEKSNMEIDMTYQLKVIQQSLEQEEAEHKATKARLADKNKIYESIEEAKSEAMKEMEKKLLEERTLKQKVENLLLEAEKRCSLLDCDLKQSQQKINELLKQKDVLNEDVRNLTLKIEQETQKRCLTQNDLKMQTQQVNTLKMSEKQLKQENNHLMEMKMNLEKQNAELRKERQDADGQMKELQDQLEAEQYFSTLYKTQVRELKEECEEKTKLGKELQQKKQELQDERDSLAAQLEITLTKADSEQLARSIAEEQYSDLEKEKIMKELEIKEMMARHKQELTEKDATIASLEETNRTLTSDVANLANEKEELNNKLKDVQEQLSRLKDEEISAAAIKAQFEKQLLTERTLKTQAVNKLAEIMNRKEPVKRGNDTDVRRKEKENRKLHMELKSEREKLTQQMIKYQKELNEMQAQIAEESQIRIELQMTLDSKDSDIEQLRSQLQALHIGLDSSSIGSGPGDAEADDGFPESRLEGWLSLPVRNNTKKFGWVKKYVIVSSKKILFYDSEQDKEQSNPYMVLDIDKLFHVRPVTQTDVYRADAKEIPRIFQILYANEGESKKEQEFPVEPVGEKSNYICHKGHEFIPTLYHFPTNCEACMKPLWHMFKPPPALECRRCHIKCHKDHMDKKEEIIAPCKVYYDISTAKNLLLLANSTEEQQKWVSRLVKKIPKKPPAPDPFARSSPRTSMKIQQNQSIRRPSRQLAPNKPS

SMILES: CC(C)NC(=O)COc1cccc(-c2nc(Nc3ccc4[nH]ncc4c3)c3ccccc3n2)c1 [Belumosudil mesylate, 2-{3-[4-(1H-indazol-5-ylamino)-2-quinazolinyl]phenoxy}-N-(propan-2-yl) acetamide methanesulfonate (1:1)]
solubility in DMF ([1]; DMF): slightly soluble | solubility in DMSO ([1]; DMSO): soluble | solubility in methanol ([1]; methanol): slightly soluble | solubility in water ([1]; water): practically insoluble

ROCK2 activity of metabolite (ROCK2): active | increase in AUClast vs belumosudil alone [2]: 150% | increase in Cmax vs belumosudil alone [2]: 129% | AUC0-24, arithmetic mean (SD) [2, 4]: 113 (81.2) ^q ng*h/mL | AUC0-24, geometric mean (geometric CV %) [2, 4]: 91.5 (76.3) ^q; ng*h/mL | AUCinf, arithmetic mean (SD) [2, 4]: 279 (122) ^t ng*h/mL | AUCinf, geometric mean (geometric CV %) [2, 4]: 265 (47.6) ^t; ng*h/mL | AUClast, arithmetic mean (SD) [2, 4]: 164 (100) ^q ng*h/mL | AUClast, geometric mean (geometric CV %) [2, 4]: 123 (114.0) ^q; ng*h/mL | t1/2, arithmetic mean (SD) [2, 4]: 2.31 (0.848) ^u h | t1/2, geometric mean (geometric CV %) [2, 4]: 2.21 (39.0) ^u; h | Cmax, arithmetic mean (SD) [2, 5]: 20.5 (11.4) ^j ng/mL | Cmax, geometric mean (geometric CV %) [2, 5]: 18.0 (54.6) ^j; ng/mL | Tmax, median (range) [2, 5]: 3.00 (1.00-5.00) h | Cmax, arithmetic mean (SD) [2, 6]: 21.2 (11.3) ^s ng/mL | Cmax, geometric mean (geometric CV %) [2, 6]: 18.9 (48.7) ^s; ng/mL | Tmax, median (range) [2, 6]: 16.50 (13.50-22.00) h | AUC0-24, arithmetic mean (SD) ([2]; 200 mg belumosudil BID alone): 187 (161) ^l ng*h/mL | AUC0-24, geometric mean (geometric CV %) ([2]; 200 mg belumosudil BID alone): 138 (91.3) ^l; ng*h/mL | AUCinf, arithmetic mean (SD) ([2]; 200 mg belumosudil BID alone): 287 (149) ^o ng*h/mL | AUCinf, geometric mean (geometric CV %) ([2]; 200 mg belumosudil BID alone): 259 (47.7) ^o; ng*h/mL | AUClast, arithmetic mean (SD) ([2]; 200 mg belumosudil BID alone): 205 (153) ^l ng*h/mL | AUClast, geometric mean (geometric CV %) ([2]; 200 mg belumosudil BID alone): 157 (93.0) ^l; ng*h/mL | t1/2, arithmetic mean (SD) ([2]; 200 mg belumosudil BID alone): 2.30 (0.757) ^p h | t1/2, geometric mean (geometric CV %) ([2]; 200 mg belumosudil BID alone): 2.19 (34.2) ^p; h | Cmax, arithmetic mean (SD) [2, 7]: 25.8 (12.6) ^n ng/mL | Cmax, geometric mean (geometric CV %) [2, 7]: 23.8 (39.6) ^n; ng/mL | Tmax, median (range) [2, 7]: 2.00 (1.00-6.00) h | Cmax, arithmetic mean (SD) [2, 8]: 26.1 (12.7) ^n ng/mL | Cmax, geometric mean (geometric CV %) [2, 8]: 23.6 (46.4) ^n; ng/mL | Tmax, median (range) [2, 8]: 13.98 (13.00-24.00) h | AUC0-24, arithmetic mean (SD) [2, 9]: 159 (61.2) ^c ng*h/mL | AUC0-24, geometric mean (geometric CV %) [2, 9]: 148 (41.9) ^c; ng*h/mL | AUCinf, arithmetic mean (SD) [2, 9]: 190 (37.7) ^i ng*h/mL | AUCinf, geometric mean (geometric CV %) [2, 9]: 187 (20.0) ^i; ng*h/mL | AUClast, arithmetic mean (SD) [2, 9]: 136 (55.5) ^c ng*h/mL | AUClast, geometric mean (geometric CV %) [2, 9]: 126 (41.7) ^c; ng*h/mL | Cmax, arithmetic mean (SD) [2, 9]: 55.2 (17.1) ^c ng/mL | Cmax, geometric mean (geometric CV %) [2, 9]: 52.5 (34.0) ^c; ng/mL | Tmax, median (range) [2, 9]: 2.08 (1.50-5.00) h | t1/2, arithmetic mean (SD) [2, 9]: 1.55 (0.325) ^j h | t1/2, geometric mean (geometric CV %) [2, 9]: 1.51 (21.4) ^j; h | AUC0-24, arithmetic mean (SD) [2, 10]: 81.3 (30.7) ^e ng*h/mL | AUC0-24, geometric mean (geometric CV %) [2, 10]: 75.6 (42.1) ^e; ng*h/mL | AUClast, arithmetic mean (SD) [2, 10]: 58.4 (18.7) ^e ng*h/mL | AUClast, geometric mean (geometric CV %) [2, 10]: 55.3 (36.4) ^e; ng*h/mL | Cmax, arithmetic mean (SD) [2, 10]: 24.9 (9.21) ^b ng/mL | Cmax, geometric mean (geometric CV %) [2, 10]: 23.2 (40.0) ^b; ng/mL | Tmax, median (range) [2, 10]: 3.00 (1.00-5.00) h | t1/2, arithmetic mean (SD) [2, 10]: 1.96 (0.931) ^f h | t1/2, geometric mean (geometric CV %) [2, 10]: 1.82 (38.5) ^f; h | metabolite levels [2, 12]: nonquantifiable in all but 1 subject | metabolite exposure relative to the parent [3]: < 5%
SMILES: NC(=O)COc1cccc(-c2nc(Nc3ccc4[nH]ncc4c3)c3ccccc3n2)c1 [KD025m1]
metabolite concentrations [2, 11]: nonquantifiable levels in all but 1 subject

ROCK2 activity of metabolite (ROCK2): inactive | AUC0-24, geometric mean (geometric CV %) [2, 4]: 767 (115.3) ^k; ng*h/mL | AUCinf, arithmetic mean (SD) [2, 4]: 1430 (981) ^q ng*h/mL | AUCinf, geometric mean (geometric CV %) [2, 4]: 1110 (90.3) ^q; ng*h/mL | AUClast, arithmetic mean (SD) [2, 4]: 1160 (998) ^k ng*h/mL | AUClast, geometric mean (geometric CV %) [2, 4]: 783 (122.6) ^k; ng*h/mL | t1/2, arithmetic mean (SD) [2, 4]: 3.20 (2.10) ^r h | t1/2, geometric mean (geometric CV %) [2, 4]: 2.76 (55.1) ^r h | Cmax, arithmetic mean (SD) [2, 5]: 129 (133) ^l ng/mL | Cmax, geometric mean (geometric CV %) [2, 5]: 72.3 (166.8) ^l; ng/mL | Cmax, arithmetic mean (SD) [2, 6]: 172 (160) ^n ng/mL | Cmax, geometric mean (geometric CV %) [2, 6]: 115 (121.8) ^n; ng/mL | AUC0-24, geometric mean (geometric CV %) ([2]; 200 mg belumosudil BID alone): 1950 (82.3) ^k; ng*h/mL | AUCinf, arithmetic mean (SD) ([2]; 200 mg belumosudil BID alone): 2550 (2200) ^c ng*h/mL | AUCinf, geometric mean (geometric CV %) ([2]; 200 mg belumosudil BID alone): 1900 (90.4) ^c; ng*h/mL | AUClast, arithmetic mean (SD) ([2]; 200 mg belumosudil BID alone): 2690 (2090) ^k ng*h/mL | AUClast, geometric mean (geometric CV %) ([2]; 200 mg belumosudil BID alone): 2030 (91.1) ^k; ng*h/mL | t1/2, arithmetic mean (SD) ([2]; 200 mg belumosudil BID alone): 5.70 (5.24) ^c h | t1/2, geometric mean (geometric CV %) ([2]; 200 mg belumosudil BID alone): 4.32 (78.9) ^c h | Cmax, arithmetic mean (SD) [2, 7]: 343 (202) ^k ng/mL | Cmax, geometric mean (geometric CV %) [2, 7]: 282 (75.6) ^k; ng/mL | Cmax, arithmetic mean (SD) [2, 8]: 323 (207) ng/mL | Cmax, geometric mean (geometric CV %) [2, 8]: 257 (83.9); ng/mL | AUC0-24, geometric mean (geometric CV %) [2, 13]: 745 (70.7); ng*h/mL | AUCinf, arithmetic mean (SD) [2, 13]: 1050 (792) ^c ng*h/mL | AUCinf, geometric mean (geometric CV %) [2, 13]: 843 (73.7) ^c; ng*h/mL | AUClast, arithmetic mean (SD) [2, 13]: 891 (710) ng*h/mL | AUClast, geometric mean (geometric CV %) [2, 13]: 704 (75.5); ng*h/mL | Cmax, arithmetic mean (SD) [2, 13]: 257 (152) ng/mL | Cmax, geometric mean (geometric CV %) [2, 13]: 221 (60.8); ng/mL | t1/2, arithmetic mean (SD) [2, 13]: 4.00 (3.69) ^g h | t1/2, geometric mean (geometric CV %) [2, 13]: 2.89 (92.2) ^g h | AUC0-24, geometric mean (geometric CV %) [2, 14]: 110 (84.0) ^v; ng*h/mL | AUCinf, arithmetic mean (SD) [2, 14]: 175 (19.4) ^t ng*h/mL | AUCinf, geometric mean (geometric CV %) [2, 14]: 174 (11.1) ^t; ng*h/mL | AUClast, arithmetic mean (SD) [2, 14]: 108 (76.5) ^v ng*h/mL | AUClast, geometric mean (geometric CV %) [2, 14]: 85.8 (81.6) ^v; ng*h/mL | Cmax, arithmetic mean (SD) [2, 14]: 29.4 (23.8) ^c ng/mL | Cmax, geometric mean (geometric CV %) [2, 14]: 23.5 (70.7) ^c; ng/mL | t1/2, arithmetic mean (SD) [2, 14]: 3.59 (1.84) ^w h | t1/2, geometric mean (geometric CV %) [2, 14]: 3.10 (69.6) ^w h | AUC0-24, geometric mean (geometric CV %) [2, 9]: 376 (56.7) ^c; ng*h/mL | AUCinf, arithmetic mean (SD) [2, 9]: 444 (237) ^h ng*h/mL | AUCinf, geometric mean (geometric CV %) [2, 9]: 396 (50.2) ^h; ng*h/mL | AUClast, arithmetic mean (SD) [2, 9]: 407 (237) ^c ng*h/mL | AUClast, geometric mean (geometric CV %) [2, 9]: 349 (61.1) ^c; ng*h/mL | Cmax, arithmetic mean (SD) [2, 9]: 169 (85.8) ^c ng/mL | Cmax, geometric mean (geometric CV %) [2, 9]: 148 (57.3) ^c; ng/mL | t1/2, arithmetic mean (SD) [2, 9]: 1.31 (0.368) ^h | t1/2, geometric mean (geometric CV %) [2, 9]: 1.27 (26.8) ^h | AUC0-24, geometric mean (geometric CV %) [2, 10]: 1100 (63.7); ng*h/mL | AUCinf, arithmetic mean (SD) [2, 10]: 1460 (910) ^d ng*h/mL | AUCinf, geometric mean (geometric CV %) [2, 10]: 1230 (69.5) ^d; ng*h/mL | AUClast, arithmetic mean (SD) [2, 10]: 1260 (811) ng*h/mL | AUClast, geometric mean (geometric CV %) [2, 10]: 1050 (68.1); ng*h/mL | Cmax, arithmetic mean (SD) [2, 10]: 379 (182) ng/mL | Cmax, geometric mean (geometric CV %) [2, 10]: 337 (54.7); ng/mL | t1/2, arithmetic mean (SD) [2, 10]: 3.86 (3.24) ^d h | t1/2, geometric mean (geometric CV %) [2, 10]: 3.03 (76.8) ^d h | decrease in AUCinf vs belumosudil alone [2, 11]: 33% | decrease in AUClast vs belumosudil alone [2, 11]: 33% | decrease in Cmax vs belumosudil alone [2, 11]: 35% | decrease in AUC0-24 vs belumosudil alone ([2]; coadministration of omeprazole): ~63% | decrease in Cmax (first dose) vs belumosudil alone ([2]; coadministration of omeprazole): ~73% | decrease in Cmax, second dose vs belumosudil alone ([2]; coadministration of omeprazole): ~57% | decrease in AUClast vs belumosudil alone [2, 12]: 94% | decrease in Cmax vs belumosudil alone [2, 12]: 93%
SMILES: O=C(O)COc1cccc(-c2nc(Nc3ccc4[nH]ncc4c3)c3ccccc3n2)c1 [KD025m2]

SMILES: C=CC(=O)N1CCC[C@@H](n2nc(-c3ccc(Oc4ccccc4)cc3)c3c(N)ncnc32)C1 [ibrutinib]
discontinuation rate because of treatment-emergent adverse events (TEAEs) (patients with cGVHD): 43%

— US20240350493A1 (Kadmon Corporation, LLC, priority 2022, published 2024)
